For eight molecules, IC50 results are on record in patent publication US6333428A, “6-fluorobicyclo[3.1.0]hexane derivatives” (Taisho Pharmaceutical Co., Ltd., priority 1998, dated 2001).

The target of the assay is T1, metabotropic glutamate receptors mG1uR2 (Rattus norvegicus, UniProt P31421).
T1 construct: expressed in transfected cells
The assay is described as follows: Effect of Test Compounds on cAMP Accumulation (inhibition of Forskolin-stimulated cAMP accumulation in CHO cells stably expressing mGluR2). The class given is cell-based. Here is the method: After the medium was replaced with an L-glutamine free medium, they were cultured for 4 hours, and the supernatant liquid was aspirated. After adding 150 μl of PBS(+)-IBMX (10 mM PBS(-), 1 mM MgC12,1 mM CaCl2, 1 mM IBMX), incubation was conducted at 37° C. under the presence of 5% CO2 for 20 minutes. Once again the supernatant liquid was suctioned off, 60 μl of 10^-5 M Forskolin and PBS (+)-IBMX containing the specimens listed in Table 1 between 10^-10 and 10^-4 M were added, incubation was carried out for 15 minutes at 37° C. under the presence of 5% CO2, and a study was carried out for the inhibitory effect of the agonists on the Forskolin stimulation cAMP accumulation quantity [for control, the conditions were set to Forskolin with no addition of the compounds (Tanabe et al., Neuron, 8, 169-179 (1992))]. The reactions were halted by adding 100 μl of ice-cooled ethanol, the entire quantity of the supernatant liquid was collected in a separate plate, then was dried up at normal temperature with an evaporator, and was kept at -20° C. In the dried-up samples, the quantity of cAMP was measured using a cAMP EIA kit (from the Amasham company). The control value was subtracted from each cAMP quantity.
On the technique in general: Changes in cAMP serve as a functional read-out for many G protein-coupled receptors.

Where [1] appears, read: CHO cells stably expressing mGluR2, 10^-5 M Forskolin, specimens 10^-10 to 10^-4 M, 15 minutes at 37° C., cAMP EIA kit, agonist.

Like-named read-outs stand apart in the source and are kept apart here.

T1 sequence (P31421 19-872): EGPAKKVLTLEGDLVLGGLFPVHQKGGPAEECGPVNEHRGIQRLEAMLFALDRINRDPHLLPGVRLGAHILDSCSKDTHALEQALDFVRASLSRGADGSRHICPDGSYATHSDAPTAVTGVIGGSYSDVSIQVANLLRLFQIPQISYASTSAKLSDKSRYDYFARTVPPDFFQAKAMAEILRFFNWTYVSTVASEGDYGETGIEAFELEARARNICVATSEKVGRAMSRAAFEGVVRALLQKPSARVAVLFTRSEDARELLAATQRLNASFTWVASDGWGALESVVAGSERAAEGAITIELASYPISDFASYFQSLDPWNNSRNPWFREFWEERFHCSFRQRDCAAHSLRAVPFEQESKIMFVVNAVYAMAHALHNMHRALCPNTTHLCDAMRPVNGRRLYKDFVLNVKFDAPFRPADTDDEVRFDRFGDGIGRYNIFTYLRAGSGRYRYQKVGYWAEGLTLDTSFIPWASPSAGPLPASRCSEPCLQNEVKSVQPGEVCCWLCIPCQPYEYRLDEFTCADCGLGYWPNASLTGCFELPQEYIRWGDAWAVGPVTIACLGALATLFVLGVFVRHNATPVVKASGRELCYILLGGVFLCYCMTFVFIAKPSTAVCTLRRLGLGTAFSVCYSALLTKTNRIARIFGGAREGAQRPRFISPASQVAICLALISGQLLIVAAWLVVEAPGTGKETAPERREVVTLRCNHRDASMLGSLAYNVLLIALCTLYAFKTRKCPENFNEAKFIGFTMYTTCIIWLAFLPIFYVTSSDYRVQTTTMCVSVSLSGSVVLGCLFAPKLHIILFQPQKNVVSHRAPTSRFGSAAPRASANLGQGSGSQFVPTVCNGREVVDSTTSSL

In the case of `N[C@@]1(C(=O)O)CC[C@@H]2[C@H]1[C@@]2(F)C(=O)O` (racemic) [Comp. 1, (1RS, 2SR, 5RS, 6RS)-2-amino-6-fluorobicyclo[3.1.0]hexane-2,6-dicarboxylic acid], the IC50 under setting [1] came to 34.2 nM.
Regarding `N[C@@]1(C(=O)O)CC(=O)[C@@H]2[C@H]1[C@@]2(F)C(=O)O` (racemic) [Comp. 3, (1RS, 2SR, 5SR, 6SR)-2-amino-6-fluoro-4-oxobicyclo[3.1.0]hexane-2,6-dicarboxylic acid], the IC50 under setting [1] was 1.26 nM.
On the same count and under the same terms, the figure for `N[C@@]1(C(=O)O)C[C@H](O)[C@@H]2[C@H]1[C@@]2(F)C(=O)O` (racemic) [Comp. 5, (1RS, 2SR, 4SR, 5SR, 6SR)-2-amino-6-fluoro-4-hydroxybicyclo [3.1.0]hexane-2,6-dicarboxylic acid] is 19.6 nM; for `N[C@@]1(C(=O)O)CC[C@@H]2[C@H]1[C@@]2(F)C(=O)O` (single isomer, unassigned) [Comp. 2, (-)-(1R*, 2S*, 5R*, 6R*)-2-amino-6-fluorobicyclo[3.1.0]hexane-2,6-dicarboxylic acid] it is 16.6 nM; for `N[C@@]1(C(=O)O)CC(=O)[C@@H]2[C@H]1[C@@]2(F)C(=O)O` (single isomer, unassigned) [Comp. 4, (+)-(1R*, 2S*, 5S*, 6S*)-2amino-6-fluoro-4-oxobicyclo [3.1.0]hexane-2,6-dicarboxylic acid] it is 0.66 nM.
In turn, `N[C@@]1(C(=O)O)CC[C@@H](C(=O)O)C1` [(1s,3R)-ACPD, (1S, 3R)-1-aminocyclopentane-1,3-dicarboxylic acid, reference compound] returned a 50% inhibitory concentration (IC50) of 1500 nM.
With `N[C@H](C(=O)O)C1[C@@H](C(=O)O)[C@@H]1C(=O)O` (stereo partly drawn) [DCG IV, (2S, 1'R, 2'R, 3'R)-2-(2', 3'-dicarboxycycloproyl)glycine, reference compound], the IC50 under setting [1] turned out to be 98.3 nM.
Turning to `N[C@H](C(=O)O)[C@H]1C[C@@H]1C(=O)O` [L-CCG-I, (2S, 1'S, 2'S)-2-(carboxycyclopropyl)glycine, reference compound], under setting [1], the IC50 was determined as 121 nM.

By IC50 is commonly meant the concentration that gives 50% inhibition. High values mean lower potency, low ones higher potency.
